Experimental findings from patent US4563527A, “Amidine compounds” (Torii & Co., Ltd., priority 1984, dated 1986) are described below.

Series [1] has as its target T1, Trypsin (Bos taurus, UniProt P00760).
T1 sequence (P00760 24-246): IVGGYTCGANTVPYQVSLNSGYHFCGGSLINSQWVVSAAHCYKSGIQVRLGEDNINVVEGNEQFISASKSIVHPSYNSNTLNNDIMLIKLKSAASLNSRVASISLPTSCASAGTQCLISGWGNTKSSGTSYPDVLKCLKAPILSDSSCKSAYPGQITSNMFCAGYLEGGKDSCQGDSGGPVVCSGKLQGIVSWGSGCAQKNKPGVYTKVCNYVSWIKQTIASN
Put plainly: Anti-trypsin activity (hydrolysis of TAME). It is filed as biochemical. The following applies: for IC50: molar concentration inhibiting 50% of TAME hydrolysis, read-out: ID50 trypsin. On the procedure: (§1) The anti-trypsin, anti-plasmin, anti-kallikrein and anti-thrombin activities were determined according to the method of Muramatsu et al. [M. Muramatus, T. Onishi, S. Makino, Y. Hayashi and S. Fujii, J. of Biochem., 58, 214 (1965)]. The data summarized in Table 1 are expressed in terms of molar concentration (ID50) of the test compound which inhibits 50% of the activity of each enzyme to hydrolyze TAME (tosylalginine methyl ester). The compound No. corresponds to the compound number shown in Examples.

For series [2], the target named is Plasmin (Homo sapiens, UniProt P00747). Briefly: Anti-plasmin activity (hydrolysis of TAME). The following applies: for IC50: molar concentration inhibiting 50% of TAME hydrolysis, read-out: ID50 plasmin. The class given is biochemical. On the procedure:
The anti-trypsin, anti-plasmin, anti-kallikrein and anti-thrombin activities were determined according to the method of Muramatsu et al. [M. Muramatus, T. Onishi, S. Makino, Y. Hayashi and S. Fujii, J. of Biochem., 58, 214 (1965)]. […] The compound No. corresponds to the compound number shown in Examples.

For series [3], the system named is Kallikrein. Briefly: Anti-kallikrein activity (hydrolysis of TAME). It is filed as biochemical. The conditions noted are these: molar concentration inhibiting 50% of TAME hydrolysis; read-out: ID50 kallikrein. The method, then: as §1
Series [4] deals with Thrombin (Homo sapiens, UniProt P00734). Briefly: biochemical. The conditions noted are these: for inhibition at 10 µM: figure in parentheses, at 1×10^-5 M, TAME, read-out: percentage inhibition of thrombin; for IC50: read-out: ID50 thrombin.
For series [5], the target named is T2, C1r (Homo sapiens, UniProt P00736).
T2 sequence (P00736 464-705 limits assumed): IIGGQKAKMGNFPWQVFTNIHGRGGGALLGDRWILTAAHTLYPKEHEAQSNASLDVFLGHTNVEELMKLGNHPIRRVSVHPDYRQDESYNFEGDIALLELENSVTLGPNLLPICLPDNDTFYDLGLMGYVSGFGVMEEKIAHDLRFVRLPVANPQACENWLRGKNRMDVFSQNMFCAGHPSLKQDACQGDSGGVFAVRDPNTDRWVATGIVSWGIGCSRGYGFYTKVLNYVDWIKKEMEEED
T2 sequence (P00736 18-463 partner limits assumed): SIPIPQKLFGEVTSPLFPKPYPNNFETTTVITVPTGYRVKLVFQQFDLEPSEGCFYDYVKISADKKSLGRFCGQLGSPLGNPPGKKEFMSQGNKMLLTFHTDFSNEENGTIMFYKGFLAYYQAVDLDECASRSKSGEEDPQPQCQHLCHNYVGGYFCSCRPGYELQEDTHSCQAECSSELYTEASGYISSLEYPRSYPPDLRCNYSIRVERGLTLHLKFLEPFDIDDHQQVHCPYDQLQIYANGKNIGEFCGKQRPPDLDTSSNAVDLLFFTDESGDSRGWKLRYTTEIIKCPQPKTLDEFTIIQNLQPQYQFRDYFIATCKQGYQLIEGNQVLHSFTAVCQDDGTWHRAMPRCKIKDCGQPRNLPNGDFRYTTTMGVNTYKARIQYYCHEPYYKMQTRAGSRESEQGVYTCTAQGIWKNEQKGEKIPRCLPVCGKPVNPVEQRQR
Briefly: biochemical. The following applies: molar concentration inhibiting 50% of AAME hydrolysis; read-out: ID50 C1r (Anti-C1 activity).

The target of series [6] is T3, C1s (Homo sapiens, UniProt P09871).
T3 sequence (P09871 438-688 limits assumed): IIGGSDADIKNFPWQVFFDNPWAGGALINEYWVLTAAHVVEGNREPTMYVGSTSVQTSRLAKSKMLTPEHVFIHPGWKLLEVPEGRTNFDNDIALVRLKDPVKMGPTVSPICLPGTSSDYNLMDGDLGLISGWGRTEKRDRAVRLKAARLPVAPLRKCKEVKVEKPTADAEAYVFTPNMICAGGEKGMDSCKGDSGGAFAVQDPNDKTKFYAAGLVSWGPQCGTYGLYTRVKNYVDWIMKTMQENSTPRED
T3 sequence (P09871 16-437 partner limits assumed): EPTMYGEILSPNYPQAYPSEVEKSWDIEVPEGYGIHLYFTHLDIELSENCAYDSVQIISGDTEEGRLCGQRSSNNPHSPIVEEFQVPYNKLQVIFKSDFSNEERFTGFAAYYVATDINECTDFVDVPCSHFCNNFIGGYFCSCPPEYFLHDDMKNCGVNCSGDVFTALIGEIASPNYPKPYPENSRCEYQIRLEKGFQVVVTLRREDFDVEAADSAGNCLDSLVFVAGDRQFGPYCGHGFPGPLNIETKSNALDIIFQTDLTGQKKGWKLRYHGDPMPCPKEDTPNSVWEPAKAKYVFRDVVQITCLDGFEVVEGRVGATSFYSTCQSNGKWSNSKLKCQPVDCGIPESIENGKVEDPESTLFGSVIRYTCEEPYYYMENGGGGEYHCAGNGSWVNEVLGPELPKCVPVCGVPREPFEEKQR
Briefly: Anti-C1s activity (hydrolysis of ATEE). The class given is biochemical. The conditions noted are these: molar concentration inhibiting 50% of ATEE hydrolysis; read-out: ID50 C1s (Anti-C1 activity). On the procedure:
The anti-C1 esterase (C1r, C1s) activity was determined according to the method of Okamura et al. [K. Okamura, M. Muramatsu and B. Fujii, Biochem. Biophys. Acta, 295, 252-257 (1973)]. The inhibition of complement mediated hemolysis was determined according to the method of Baker et al. [B. R. Baker and E. H. Erickson, J. Med. Chem. 12, 408-414 (1969)]. The figures in Table 2 have the following meanings:
C1s: Molar concentration of the test compound which inhibits 50% of the ability of C1s to hydrolyse ATEE (acetyltyrosin ethyl ester) (ID50).

Series [7] has as its system complement. Put plainly: Inhibition of complement mediated hemolysis. The class given is cell-based. The method, then: The complement mediated hemolysis is widely used as a means to determine the titration of complement. The principle of this method is based on the fact that hemolysis is caused by the activation of complement, when the latter is added to a complex (immune complex) of erythrocytes and the antibody thereof. The degree of hemolysis varies in proportion to the amount of complement added. Therefore, when a known amount of complement admixed with a C1 esterase inhibitor is used, the hemolysis must be suppressed in proportion to the inhibitory activity.
The anti-C1 esterase (C1r, C1s) activity was determined according to the method of Okamura et al. [K. Okamura, M. Muramatsu and B. Fujii, Biochem. Biophys. […] The figures in Table 2 have the following meanings: […]

In series [8] the test system is Forssman shock. Briefly: Forssman shock. It is filed as in vivo, guinea pig. The conditions noted are these: test compound 3 mg/kg before intravenous hemolysin; individual male guinea pigs; control died at 278, 318, 296 sec. An excerpt: Quite different from other animals, guinea pig has on the surface of its organs a specific antigen called Forssman antigen which specifically reacts with the antibody of sheep erythrocyte. Forssman shock is based on the above principle and is a shock caused by the administration of antibody of sheep erythrocyte to a guinea pig. The Forssman shock was investigated in detail by many researches and it was definitely shown that this shock is a model case where the complement plays the principal part and that the shock is associated with a classical pathway in which the complement system is activated progressively starting from C1. Since the participation of complement in autoimmune diseases has been established, the Forssman shock can be said to be useful means for testing a drug for autoimmune diseases. A drug effective for the treatment of Forssman shock is useful as a drug of autoimmune diseases. [Anti-trypsin, anti-plasmin, anti-kallikrein and anti-thrombin activities]
The experiment was performed according to the method of I. G. Offerness et al. [Biochem. Pharmacol., 27 (14), 1873-1878 (1978)]. Male Hartlay guinea pig of about 300 g in body weight was used. Each guinea pig of the control group was administered intravenously with hemolysin (minimum dose to cause the shock) (commercial hemolysin, 5,000 U as assayed by the method of Ogata) and the time elapsed until death was observed. […]

The nature of series [9]: Median lethal dose (LD50). The conditions noted are these: in vivo, mouse.
[10] abbreviates: molar concentration inhibiting 50% of TAME hydrolysis.

Like-named read-outs stand apart in the source and are kept apart here.

Sequence of Plasmin (P00747 581-810 limits assumed, species assumed): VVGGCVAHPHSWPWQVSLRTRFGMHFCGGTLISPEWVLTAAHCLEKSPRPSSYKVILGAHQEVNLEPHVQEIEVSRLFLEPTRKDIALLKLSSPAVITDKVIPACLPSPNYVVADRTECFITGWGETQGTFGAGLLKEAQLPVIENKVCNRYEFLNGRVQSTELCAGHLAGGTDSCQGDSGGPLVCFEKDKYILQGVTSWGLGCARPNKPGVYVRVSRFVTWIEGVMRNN
Sequence of Plasmin (P00747 97-580 partner limits assumed, species assumed): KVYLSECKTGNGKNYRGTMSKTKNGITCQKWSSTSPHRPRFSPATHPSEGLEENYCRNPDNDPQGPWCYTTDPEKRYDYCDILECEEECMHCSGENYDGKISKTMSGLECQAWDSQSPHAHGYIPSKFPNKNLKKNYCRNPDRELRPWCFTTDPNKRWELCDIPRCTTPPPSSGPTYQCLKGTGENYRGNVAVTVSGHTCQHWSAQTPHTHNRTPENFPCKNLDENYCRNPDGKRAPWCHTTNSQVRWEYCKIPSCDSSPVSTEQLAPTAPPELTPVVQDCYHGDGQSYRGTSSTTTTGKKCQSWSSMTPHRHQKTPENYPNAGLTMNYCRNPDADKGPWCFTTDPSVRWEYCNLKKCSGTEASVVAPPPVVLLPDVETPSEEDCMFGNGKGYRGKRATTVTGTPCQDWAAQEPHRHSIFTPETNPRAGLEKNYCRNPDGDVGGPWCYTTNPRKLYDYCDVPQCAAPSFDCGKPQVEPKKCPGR

Consider `N=C(N)NCc1ccc(C(=O)Oc2ccc3cc(C(=N)N)ccc3c2)o1` [Compound No. 1, 6-amidino-2-naphthyl 5-guanidinomethyl-furan-2-carboxylate], for which the inhibition at 10 µM in [1] (figure in parentheses, at 1×10^-5 M, TAME, read-out: percentage inhibition of trypsin) was 35%; in series [2] (figure in parentheses, at 1×10^-5 M, TAME, read-out: percentage inhibition of plasmin), 15%; in [4] it was 22%. Also, the IC50 amounted to 5 µM in series [3], 2 µM in series [5] and 3 µM in series [6]. For the same compound, the “Inhibition of complement mediated hemolysis (%)” value (shortened to “Inhibition … (%)”) in series [7] (1 × 10^-5) is on record as 100%; in series [7] (1 × 10^-6), 99%; in series [7] (1 × 10^-7), 75%. Further, the “time elapsed until death (survival) in Forssman shock” value in [8] is “Survival”. For the same compound, the median lethal dose (LD50) in series [9] (ip, I.P.) was 100 mg/kg; in [9] (po, P.O.) it was 2000 mg/kg.

`N=C(N)NCc1ccc(C(=O)Oc2ccc3cc(C(=N)N)ccc3c2)s1` [compound 28]: the IC50 worked out at 4 µM in series [1]; 9 µM in series [2]; 4 µM in [3]; 2 µM in series [5]; 3 µM in series [6]. In addition, the inhibition at 10 µM in series [4] was 46%. The “Inhibition … (%)” value worked out at 100% in [7] (1 × 10^-5), 82% in [7] (1 × 10^-6) and 35% in [7] (1 × 10^-7).

For the compound `N=C(N)c1ccc2cc(OC(=O)c3ccc(CN)o3)ccc2c1` [compound 33], the IC50 in [1] worked out at 0.5 µM; in series [2] it was 0.4 µM; in series [3], 4 µM; in [4], 3 µM; in [5], 0.7 µM; in series [6], 2 µM. In addition, the results for the “Inhibition … (%)” value in [7] (1 × 10^-5), in [7] (1 × 10^-6) and in series [7] (1 × 10^-7) were 97%, 97% and 81%, respectively.

`N=C(N)c1ccc2cc(OC(=O)c3ccc(CNC(=O)C(N)CCCCN)o3)ccc2c1` (stereo not drawn) [compound 35]: the IC50 in series [1] was found to be 8 µM; in series [2], 3 µM; in [3], 0.9 µM; in series [4], 3 µM; in series [5], 2 µM; in [6] it was 3 µM. Besides, the figures for the “Inhibition … (%)” value in series [7] (1 × 10^-5), in series [7] (1 × 10^-6) and in series [7] (1 × 10^-7) were 100%, 100% and 71%, respectively.

With `N=C(N)c1ccc2cc(OC(=O)c3ccc(CNC(=O)C(N)COCc4ccccc4)o3)ccc2c1` (stereo not drawn) [compound 36], the IC50 was found to be 0.2 µM in [1]; 0.6 µM in [2]; 0.6 µM in series [3]; 0.3 µM in series [4] (setting [10]); 0.5 µM in [5]; 4 µM in series [6]. For the same compound, the “Inhibition … (%)” value in series [7] (1 × 10^-5) is recorded as 100%; in [7] (1 × 10^-6) it was 100%; in series [7] (1 × 10^-7), 68%.

For `N=C(N)c1ccc2cc(OC(=O)c3ccc(NC(=O)C4CCC(CN)CC4)o3)ccc2c1` (stereo not drawn) [compound 37], the IC50 in [1] came out at 0.7 µM; in series [2], 0.4 µM; in series [3] it was 0.4 µM; in [4] (setting [10]), 0.9 µM; in series [5] it was 3 µM; in series [6], 0.4 µM. Also, the “Inhibition … (%)” value in series [7] (1 × 10^-5) is given as 99%; in series [7] (1 × 10^-6) it was 78%; in [7] (1 × 10^-7) it was 12%.

Consider `N=C(N)c1ccc2cc(OC(=O)c3ccc(CNC(=O)C4CCC(CN)CC4)o3)ccc2c1` (stereo not drawn) [compound 38], for which the IC50 in series [1] worked out at 0.5 µM; in series [2], 0.4 µM; in series [3] it was 0.3 µM; in series [4] (setting [10]) it was 0.08 µM; in series [5], 0.3 µM; in series [6], 3 µM. Also, the figures for the “Inhibition … (%)” value in [7] (1 × 10^-5), in [7] (1 × 10^-6) and in series [7] (1 × 10^-7) were 100%, 100% and 98%, respectively.

Take `N=C(N)c1ccc2cc(OC(=O)c3ccc(CCNC(=O)C4CCC(CN)CC4)o3)ccc2c1` (stereo not drawn) [compound 39]: the IC50 in series [1] amounted to 0.8 µM; in [2] it was 0.4 µM; in [3], 0.5 µM; in [4] (setting [10]), 2 µM; in series [5], 0.4 µM; in series [6], 4 µM. Besides, the results for the “Inhibition … (%)” value in [7] (1 × 10^-5), in series [7] (1 × 10^-6) and in series [7] (1 × 10^-7) were 100%, 100% and 71%, respectively.
